In patent publication US11267815B2, “Class of amino-substituted nitrogen-containing fused ring compounds, preparation method therefor, and use thereof” (SHANGHAI RINGENE BIOPHARMA CO., LTD., priority 2017, dated 2022):

Assays:
[1] = test system: various tumor cells (HuH-7, SNU-16, KG1, UM-UC-14, RT-112 etc.); experiment: Proliferation inhibitory activity on various tumor cells (SRB or CCK8); type: cell-based; settings: SRB or CCK8 method; read-out: proliferation inhibitory activities on various tumor cells
xenograft tumors = experiment: Xenograft tumor growth in nude mice; type: in vivo; settings: oral, daily for three weeks, lower dose (even less than 20 mg/kg)
Procedure: 1. The tumor tissue in vigorous growth period was cut into about 1.5 mm^3, and subcutaneously inoculated into the right armpit of nude mice under sterile condition. The diameter of the subcutaneous transplanted tumors in nude mice was measured with vernier caliper, and the animals were randomly divided into groups when the average volume of the tumor reached about 130 mm^3. The embodiment compounds (prepared to the desired concentration with water for injection containing 1% Tween 80 for later use) were orally administered at a predetermined dose every day for three weeks, while a same amount of menstruum was administered in the menstruum control group. During the whole experiment, the diameter of the xenograft tumor was measured twice a week and the weight of the mice was weighed at the same time. The tumor volume (TV) was calculated by the formula: TV=½×a×b^2, where a and b represent length and width respectively. According to the measured results, the relative tumor volume (RTV) was calculated by the formula: RTV=Vt/V0, where V0 was the tumor volume measured when the mice were divided into cages for administration (i.e., d0) and Vt was the tumor volume at each measurement. […]

**Q.** How did the IC50 [1] turn out when `C=CC(=O)N1CCN(CCCc2cn3c(n2)c(-c2c(Cl)c(OC)cc(OC)c2Cl)cc2cnc(NC)nc23)CC1` [Embodiment 3, 1-(4-(3-(6-(2,6-dichloro-3,5-dimethoxyaniline)-2-(methylamine)imidazo[1′,2′:1,6]pyrido[2,3-d]pyrimidin-8-yl)propyl)piperazine-1-yl)prop-2-en-1-one] was run?
**A.** < 100 nM

**Q.** What about the anti-tumor rate (xenograft tumors) of the same compound?
**A.** more than 80%
